{
  "source": "patent US20120289602A1",
  "about": "“PHARMACEUTICAL COMPOSITION FOR TREATING OR PREVENTING BURN INJURIES” (priority 2009, published 2012)",
  "assay_type_in_all_cases": "in vivo",
  "key": {"[1]": {"tested_on": "contact burn injury on the back of rats", "assay": "Measurement of lactate dehydrogenase in serum through blood chemistry after burn injury", "conditions": "10 mg/5 ml/kg intravenously twice a day, FIG. 1", "method": "(§1) To confirm the therapeutic effect of 2-hydroxy-TTBA against burn injury, contact burn injury is induced for 30 seconds on the back of rats (on the both side of skin) using a brass comb preheated for 3 minutes in the boiling water (maintaining at 100° C.). After 5 minutes, 2-hydroxy-TTBA 10 mg/5 ml/kg were administered to intravenously for 5 minutes. Since then, twice-a-day administration (at an interval of 10˜12 hours) was sustained for 7 days on the same conditions. The same amount of saline without the compound was administered to the vehicle-treated group in the same manner. Groups of burn experiments were the same as below table 1.\nThe Measurement of Lactate Dehydrogenase in Serum Through Blood Chemistry\nLactate dehydrogenase (LDH) is an enzyme distributed to almost all the tissues and catalyzing reversible reactions between pyruvic acid and lactic acid.\nIt is known that serum LDH level is elevated when tissues and cells are destroyed. Thus, the amount of LDH was measured in serum samples from each group except hemolyzed samples that may interfere with test results."}, "[2]": {"tested_on": "contact burn injury on the back of rats", "assay": "Histology of zone of stasis after burn injury (hematoxylin-eosin, cresyl violet, Masson's trichrom staining)", "method": "as §1\nFIG. 3 is the result comparing the state of the epithelial layer through hematoxylin-eosin staining of tissues according to the groups. […] Some cases that hyperplasia of epidermis thicker than normal epithelial layers occurred could be also observed.\nEschar formation and frequency of wound epidermis formation was measured by analyzing total 28 tissue areas per group (4 zones of stasis per rat, 7 rats per group). As a result, the wound switching frequency of approximately 93% occurred in the burn control group was decreased to about 18% and 4%, respectively, in the veheicle-treated and 2-hydroxy-TTBA-treated groups. Also, the rate of wound epidermis formation was increased by approximately 32% and 72%, respectively, in comparison with the burn control group. The result was shown in the below table 2 (histological appearance: Eschar Formation and frequency of wound epidermis formation).\nFIG. 4 was the photograph that observed the state of tissues of full-thickness skin through hematoxylin-eosin staining via 10× microscope.\nFIG. 5 is the photograph observed the live cells in the zone of stasis by cresyl violet staining via 10× microscope. In the burn control group and the vehicle-treated group, follicles were rarely observed and large amounts of inflammatory cells were observed throughout the full-thickness skin.\nFIG. 6 is the photograph that observed collagen of skin tissues and muscle fibers in the zone of stasis by Masson's trichrom staining. In the normal group, blue-stained collagen was evenly distributed throughout the dermis, and muscle fibers were stained red. In the burn control group, collagen was deposited irregularly below eschar, the level of staining was weak relative to the normal group. Almost of the muscle fibers were damaged and were not stained. In the vehicle-treated group, the amount of collagen was most abundantly observed relative to the other groups, even to a very high level compared to the normal control. In addition, the muscle fibers with damage were not stained, and significant amount of bleeding and infiltration of inflammatory cells were accompanied."}, "[3]": {"tested_on": "contact burn injury on the back of rats", "assay": "Observation of skin appearance on the back after burn injury (zone of stasis)", "conditions": "skin on the back 7 days after burn injury, FIG. 2", "method": "as §1\nFIG. 2 is photographs that observed skin on the back 7 days after burn injury. Full thickness burns were induced in the both sides of back of experimental rats using a preheated brass comb with 4 rectangular shapes of size 10×20 mm. At 2 hours after induction, 4 pale-colored or darkish zones of coagulation (or zones of tissue necrosis) and 3 zones of stasis (or zones of tissue injury) appeared on the both sides of back. […]\nTherefore, to evaluate the efficacy in this experiment, among the zone of stasis, the remaining 4 regions (a rectangular area indicated the dotted lines) except regions toward the head close to a medication vest among 6 areas appeared in a single rat were analyzed."}, "[4]": {"tested_on": "contact burn injury on the back of rats", "assay": "Contact burn injury in rats: animals that died within 7 days", "conditions": "within 7 days after burn injury, 10 mg/5 ml/kg intravenously, twice a day for 7 days, 7 animals in group", "method": "as §1\nWhen analyzing the results, number of animals of the normal group for comparison, number of animals in each group, and the number of animals that died within 7 days after the burn injury were shown in above table 1. Two rats in the burn control group died at 5 and 7 days, respectively, after burn injury, but all of another experimental group survived."}, "[5]": {"conditions": "28 tissue areas per group (4 zones of stasis per rat, 7 rats), 7 days after burn"}, "[6]": {"conditions": "zone of stasis, 7 days after burn, FIG. 4"}},
  "data": [
    {"smiles": "O=C(O)c1cc(NCc2c(F)c(F)c(C(F)(F)F)c(F)c2F)ccc1O", "note": "[2-hydroxy-TTBA, 2-Hydroxy-5-(2,3,5,6-tetrafluoro-4-trifluoromethyl-benzylamino)-benzoic acid]", "values": [
      {"measurement": "LDH value in serum compared to burn control group", "setting": "[1]", "value": "reduced significantly"},
      {"measurement": "rate of wound epidermis formation, increase in comparison with the burn control group", "setting": "[2]; 28 tissue areas per group", "value": "~72", "unit": "%"},
      {"measurement": "Eschar formation (%)", "setting": "[2]; [5]", "value": 3.571, "unit": "%"},
      {"measurement": "Wound epidermis formation (%)", "setting": "[2]; [5]", "value": 71.429, "unit": "%"},
      {"measurement": "Eschar formation frequency", "setting": "[2]; 28 tissue areas per group, approximately 93% in burn control group", "value": "~4", "unit": "%"},
      {"measurement": "State of the epithelial layer, hematoxylin-eosin staining", "setting": "[2]; FIG. 3", "value": "wound epidermis formation was in progress"},
      {"measurement": "Inflammatory cells in the zone of stasis, cresyl violet staining", "setting": "[2]; FIG. 5", "value": "relatively few inflammatory cells were observed"},
      {"measurement": "Live cells in the zone of stasis, cresyl violet staining", "setting": "[2]; FIG. 5", "value": "live follicles and epithelia were observed"},
      {"measurement": "Infiltration of inflammatory cells in full-thickness skin, hematoxylin-eosin staining", "setting": "[2]; [6]", "value": "considerably inhibited except in the areas of muscle cells and subcutaneous tissues"},
      {"measurement": "Protection of skin structures in full-thickness skin, hematoxylin-eosin staining", "setting": "[2]; [6]", "value": "not only a wound epidermis formation but also protective effects even in the hair follicles, sebaceous glands and muscle layers appeared"},
      {"measurement": "Skin condition by the naked eye", "setting": "[3]", "value": "restored to such a good skin condition that hair growth can be observed by the naked eye"},
      {"measurement": "Formation of eschar such as scab (skin appearance)", "setting": "[3]; zone of stasis", "value": "occurred rarely"},
      {"measurement": "Number of dead animals", "setting": "[4]", "value": 0}
    ]}
  ]
}
